According to patent US6399541B1, “Substituted 2,4-diamino-1,3,5-triazines as herbicides” (Bayer Aktiengesellschaft, priority 1997, dated 2002):

Tests used:
Format in all cases: in vivo
Abutilon = assay: Pre-emergence test/greenhouse; conditions: after three weeks
Protocol: (§1) Solvent: 5 parts by weight of acetone
(§2) Emulsifier: 1 part by weight of alkylaryl polyglycol ether
(§3) To produce a suitable preparation of active compound, 1 part by weight of active compound is mixed with the stated amount of solvent, the stated amount of emulsifier is added and the concentrate is diluted with water to the desired concentration.
(§4) Seeds of the test plants are sown in normal soil. After about 24 hours, the soil is sprayed with the preparation of active compound in such a way that the particular amounts of active compound desired are employed per unit area. The concentration of the spray liquor is chosen such that the particular amounts of active compound desired are applied in 1000 l of water/ha.
(§5) After three weeks, the degree of damage to the plants is assessed in % damage in comparison to the development of the untreated control.
(§6) 0%=no effect (as untreated control) 100%=total destruction

Alopecurus = assay: Pre-emergence test/greenhouse; conditions: after three weeks
Protocol: as §1, §2, §3, §4, §5, §6

Amaranthus = assay: Pre-emergence test/greenhouse; conditions: after three weeks
Protocol: as §1, §2, §3, §4, §5, §6

Cassia [1] = assay: Pre-emergence test/greenhouse; conditions: 250 g of ai./ha, after three weeks
Protocol: as §1, §2, §3, §4, §5, §6

Ipomoea [2] = assay: Pre-emergence test/greenhouse; conditions: 250 g of ai./ha, after three weeks
Protocol: as §1, §2, §3, §4, §5, §6

Lolium = assay: Pre-emergence test/greenhouse; conditions: 250 g of ai./ha, after three weeks
Protocol: as §1, §2, §3, §4, §5, §6

Sorghum = assay: Pre-emergence test/greenhouse; conditions: 250 g of ai./ha, after three weeks
Protocol: as §1, §2, §3, §4, §5, §6

weeds [3] = assay: Pre-emergence test; conditions: cf. Table A
Protocol: as §1, §2, §3, §4, §5, §6

Reapseed = assay: Pre-emergence test/greenhouse; conditions: after three weeks
Protocol: as §1, §2, §3, §4, §5, §6

Cassia [4] = assay: Post-emergence test/greenhouse; conditions: after three weeks
Protocol: as §1, §2, §3
as §4, with “Test plants which have a height” for “Seeds”, “5 to 15 cm” for “the test plants”, “are” for “are sown in normal soil. After about 24 hours, the soil is”, “applied” for “employed”
as §5
(§7) 0%=no effect (as untreated control)

Solanum [5] = assay: Post-emergence test/greenhouse; conditions: 60 g of ai./ha, after three weeks
Protocol: as §1, §2, §3
as §4, with “Test plants which have a height” for “Seeds”, “5 to 15 cm” for “the test plants”, “are” for “are sown in normal soil. After about 24 hours, the soil is”, “applied” for “employed”
as §5, §7

Veronica [6] = assay: Post-emergence test/greenhouse; conditions: after three weeks
Protocol: as §1, §2, §3
as §4, with “Test plants which have a height” for “Seeds”, “5 to 15 cm” for “the test plants”, “are” for “are sown in normal soil. After about 24 hours, the soil is”, “applied” for “employed”
as §5, §7

Wheat = assay: Post-emergence test/greenhouse; conditions: after three weeks
Protocol: as §1, §2, §3
as §4, with “Test plants which have a height” for “Seeds”, “5 to 15 cm” for “the test plants”, “are” for “are sown in normal soil. After about 24 hours, the soil is”, “applied” for “employed”
as §5, §7

weeds [7] = assay: Post-emergence test; conditions: cf. Table B
Protocol: as §1, §2, §3
as §4, with “Test plants which have a height” for “Seeds”, “5 to 15 cm” for “the test plants”, “are” for “are sown in normal soil. After about 24 hours, the soil is”, “applied” for “employed”
as §5, §7

Avena fatua = assay: Pre-emergence test/greenhouse; conditions: after three weeks
Protocol: as §1, §2, §3, §4, §5, §6

Barley [8] = assay: Pre-emergence test/greenhouse; conditions: 250 g of ai./ha, after three weeks
Protocol: as §1, §2, §3, §4, §5, §6

Chenopodium = assay: Pre-emergence test/greenhouse; conditions: 125 g of ai./ha, after three weeks
Protocol: as §1, §2, §3, §4, §5, §6

Cotton = assay: Pre-emergence test/greenhouse; conditions: 250 g of ai./ha, after three weeks
Protocol: as §1, §2, §3, §4, §5, §6

Datura = assay: Pre-emergence test/greenhouse; conditions: 125 g of ai./ha, after three weeks
Protocol: as §1, §2, §3, §4, §5, §6

Galium = assay: Pre-emergence test/greenhouse; conditions: 1000 g of ai./ha, after three weeks
Protocol: as §1, §2, §3, §4, §5, §6

Matricaria [9] = assay: Pre-emergence test/greenhouse; conditions: 125 g of ai./ha, after three weeks
Protocol: as §1, §2, §3, §4, §5, §6

Setaria [10] = assay: Pre-emergence test/greenhouse; conditions: after three weeks
Protocol: as §1, §2, §3, §4, §5, §6

Solanum [11] = assay: Pre-emergence test/greenhouse; conditions: 125 g of ai./ha, after three weeks
Protocol: as §1, §2, §3, §4, §5, §6

Veronica [12] = assay: Pre-emergence test/greenhouse; conditions: 250 g of ai./ha, after three weeks
Protocol: as §1, §2, §3, §4, §5, §6

Viola = assay: Pre-emergence test/greenhouse; conditions: 250 g of ai./ha, after three weeks
Protocol: as §1, §2, §3, §4, §5, §6

Xanthium [13] = assay: Pre-emergence test/greenhouse; conditions: 1000 g of ai./ha, after three weeks
Protocol: as §1, §2, §3, §4, §5, §6

Barley [14] = assay: Post-emergence test/greenhouse; conditions: 125 g of ai./ha, after three weeks
Protocol: as §1, §2, §3
as §4, with “Test plants which have a height” for “Seeds”, “5 to 15 cm” for “the test plants”, “are” for “are sown in normal soil. After about 24 hours, the soil is”, “applied” for “employed”
as §5, §7

Echinochloa = assay: Post-emergence test/greenhouse; conditions: 125 g of ai./ha, after three weeks
Protocol: as §1, §2, §3
as §4, with “Test plants which have a height” for “Seeds”, “5 to 15 cm” for “the test plants”, “are” for “are sown in normal soil. After about 24 hours, the soil is”, “applied” for “employed”
as §5, §7

Ipomoea [15] = assay: Post-emergence test/greenhouse; conditions: after three weeks
Protocol: as §1, §2, §3
as §4, with “Test plants which have a height” for “Seeds”, “5 to 15 cm” for “the test plants”, “are” for “are sown in normal soil. After about 24 hours, the soil is”, “applied” for “employed”
as §5, §7

Matricaria [16] = assay: Post-emergence test/greenhouse; conditions: 125 g of ai./ha, after three weeks
Protocol: as §1, §2, §3
as §4, with “Test plants which have a height” for “Seeds”, “5 to 15 cm” for “the test plants”, “are” for “are sown in normal soil. After about 24 hours, the soil is”, “applied” for “employed”
as §5, §7

Polygonum = assay: Post-emergence test/greenhouse; conditions: 60 g of ai./ha, after three weeks
Protocol: as §1, §2, §3
as §4, with “Test plants which have a height” for “Seeds”, “5 to 15 cm” for “the test plants”, “are” for “are sown in normal soil. After about 24 hours, the soil is”, “applied” for “employed”
as §5, §7

Setaria [17] = assay: Post-emergence test/greenhouse; conditions: 125 g of ai./ha, after three weeks
Protocol: as §1, §2, §3
as §4, with “Test plants which have a height” for “Seeds”, “5 to 15 cm” for “the test plants”, “are” for “are sown in normal soil. After about 24 hours, the soil is”, “applied” for “employed”
as §5, §7

Xanthium [18] = assay: Post-emergence test/greenhouse; conditions: 125 g of ai./ha, after three weeks
Protocol: as §1, §2, §3
as §4, with “Test plants which have a height” for “Seeds”, “5 to 15 cm” for “the test plants”, “are” for “are sown in normal soil. After about 24 hours, the soil is”, “applied” for “employed”
as §5, §7

## CC(F)c1nc(N)nc(NC(C)c2ccccc2)n1 (racemic) [Example 16]
Abutilon; 250 g of ai./ha
  degree of damage, Abutilon: 80%
Alopecurus; 250 g of ai./ha
  degree of damage, Alopecurus: 100%
Amaranthus; 250 g of ai./ha
  degree of damage, Amaranthus: 100%
Cassia [1]
  degree of damage, Cassia: 100%
Ipomoea [2]
  degree of damage, Ipomoea: 100%
Lolium
  degree of damage, Lolium: 100%
Sorghum
  degree of damage, Sorghum: 95%
Weeds [3]
  action against weeds compared with known compound (A): considerably strong action against weeds than the known compound (A)

## CC(Cl)c1nc(N)nc(NC(C)c2ccccc2)n1 (racemic) [Example 18]
Amaranthus; 250 g of ai./ha
  degree of damage, Amaranthus: 100%
Ipomoea [2]
  degree of damage, Ipomoea: 95%
Reapseed; 250 g of ai./ha
  degree of damage, Reapseed: 0%
Cassia [4]; 60 g of ai./ha
  degree of damage, Cassia: 70%
Solanum [5]
  degree of damage, Solanum: 90%
Veronica [6]; 60 g of ai./ha
  degree of damage, Veronica: 95%
Wheat; 60 g of ai./ha
  degree of damage, Wheat: 0%
Weeds [3]
  action against weeds compared with known compound (A): considerably strong action against weeds than the known compound (A)
Weeds [7]
  activity against weeds compared with known compound (A): considerably stronger activity against weeds than the known compound (A)

## CC(Nc1nc(N)nc(C(F)(F)F)n1)c1ccccc1 (centres unmarked) [(A), 2-Amino-4-(1-phenyl-ethylamino)-6-trifluoromethyl-1,3,5-triazine, reference compound]
Abutilon; 250 g of ai./ha
  degree of damage, Abutilon: 0%
Abutilon; 1000 g of ai./ha
  degree of damage, Abutilon: 0%
Alopecurus; 250 g of ai./ha
  degree of damage, Alopecurus: 30%
Alopecurus; 1000 g of ai./ha
  degree of damage, Alopecurus: 30%
Amaranthus; 125 g of ai./ha
  degree of damage, Amaranthus: 40%
Amaranthus; 250 g of ai./ha
  degree of damage, Amaranthus: 80%
Amaranthus; 1000 g of ai./ha
  degree of damage, Amaranthus: 70%
Avena fatua; 250 g of ai./ha
  degree of damage, Avena fatua: 0%
Avena fatua; 1000 g of ai./ha
  degree of damage, Avena fatua: 0%
Barley [8]
  degree of damage, Barley: 0%
Cassia [1]
  degree of damage, Cassia: 20%
Chenopodium
  degree of damage, Chenopodium: 20%
Cotton
  degree of damage, Cotton: 0%
Datura
  degree of damage, Datura: 0%
Galium
  degree of damage, Galium: 60%
Ipomoea [2]
  degree of damage, Ipomoea: 20%
Lolium
  degree of damage, Lolium: 0%
Matricaria [9]
  degree of damage, Matricaria: 0%
Reapseed; 125 g of ai./ha
  degree of damage, Reapseed: 40%
Reapseed; 250 g of ai./ha
  degree of damage, Reapseed: 40%
Setaria [10]; 250 g of ai./ha
  degree of damage, Setaria: 0%
Setaria [10]; 1000 g of ai./ha
  degree of damage, Setaria: 20%
Solanum [11]
  degree of damage, Solanum: 0%
Sorghum
  degree of damage, Sorghum: 0%
Veronica [12]
  degree of damage, Veronica: 20%
Viola
  degree of damage, Viola: 0%
Xanthium [13]
  degree of damage, Xanthium: 70%
Barley [14]
  degree of damage, Barley: 5%
Cassia [4]; 60 g of ai./ha
  degree of damage, Cassia: 40%
Cassia [4]; 125 g of ai./ha
  degree of damage, Cassia: 80%
Echinochloa
  degree of damage, Echinochloa: 50%
Ipomoea [15]; 60 g of ai./ha
  degree of damage, Ipomoea: 80%
Ipomoea [15]; 125 g of ai./ha
  degree of damage, Ipomoea: 90%
Matricaria [16]
  degree of damage, Matricaria: 60%
Polygonum
  degree of damage, Polygonum: 80%
Setaria [17]
  degree of damage, Setaria: 50%
Solanum [5]
  degree of damage, Solanum: 40%
Veronica [6]; 60 g of ai./ha
  degree of damage, Veronica: 70%
Veronica [6]; 125 g of ai./ha
  degree of damage, Veronica: 90%
Wheat; 60 g of ai./ha
  degree of damage, Wheat: 0%
Wheat; 125 g of ai./ha
  degree of damage, Wheat: 0%
Xanthium [18]
  degree of damage, Xanthium: 60%
